# pIC50: −log10 of the molar value. Like-named read-outs stand apart in the source and are kept apart here.
# What was measured:
# [1] = tested on: GM3 expression on the cell surface, B16 mouse melanoma cells; assay: cell based phenotypic assay, cell surface GM3 by antibody mediated immunofluorescence, B16 (GM3 B16 IC50); details: 50% inhibition of GM3 expression on the cell surface
# How it was run: (§1)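 Both lines undergo the phenotypic GM3 assay, and viability is recorded from that same cell-based run.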
# [2] = tested on: B16 mouse melanoma cells; assay: cell viability in the B16 cell-based assay (Viability, B16 IC50)
# How it was run: (§2)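 Viability readouts were run alongside the GM3 cell-surface assay in the same B16 and C32 cultures. A figure above 10 indicates no cell death.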
# [3] = tested on: GM3 expression on the cell surface, C32 human melanoma cells; assay: cell based phenotypic assay, cell surface GM3 by antibody mediated immunofluorescence, C32 (GM3 C32 IC50); details: 50% inhibition of GM3 expression on the cell surface
# How it was run: as §1
# [4] = tested on: C32 human melanoma cells; assay: cell viability in the C32 cell-based assay (Viability, C32 IC50); details: concentration causing 50% cell death, values greater than 10 represent a lack of cell death
# How it was run: as §2
# [5] = biological target: T1, glucosylceramide synthase (Homo sapiens, UniProt Q16739); assay: microsomal assay measuring conversion of ceramide to glucosylceramide by HPLC (GCS IC50); assay type: biochemical; details: concentration causing 50% inhibition of glucosylceramide synthase activity
# T1 construct: Microsomes were isolated from A375 human melanoma cells; endogenous in cells; host or cells: A375 human melanoma cells (microsomal fraction, 100,000 g pellet)
# T1 sequence (Q16739 1-394): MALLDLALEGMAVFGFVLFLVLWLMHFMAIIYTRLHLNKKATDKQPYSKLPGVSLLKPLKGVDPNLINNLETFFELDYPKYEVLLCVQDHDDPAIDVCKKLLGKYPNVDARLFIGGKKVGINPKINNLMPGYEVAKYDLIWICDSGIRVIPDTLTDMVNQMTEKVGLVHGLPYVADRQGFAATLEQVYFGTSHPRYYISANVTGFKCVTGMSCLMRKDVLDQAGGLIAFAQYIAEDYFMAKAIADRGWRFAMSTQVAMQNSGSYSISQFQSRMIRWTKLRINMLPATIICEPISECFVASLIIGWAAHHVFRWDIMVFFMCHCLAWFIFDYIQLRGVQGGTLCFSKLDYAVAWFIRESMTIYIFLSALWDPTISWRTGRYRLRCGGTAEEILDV
# How it was run: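 IC50 is the compound concentration halving glucosylceramide synthase activity. Activity was measured in microsomes, with HPLC quantifying glucosylceramide formed from ceramide.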
# [6] = B16 mouse melanoma cells, read-out: GM3 B16 IC50
# [7] = B16 cells, concentration causing 50% cell death, values greater than 10 represent a lack of cell death, read-out: Viability, B16 IC50
# [8] = C32 human melanoma cells, read-out: GM3 C32 IC50
# [9] = C32 cells, read-out: Viability, C32 IC50
# [10] = Mus musculus, B16 mouse melanoma cells, read-out: GM3 B16 IC50
# [11] = Mus musculus, B16, B16 cells, concentration causing 50% cell death, values greater than 10 represent a lack of cell death, read-out: Viability, B16 IC50
# [12] = Homo sapiens, C32 human melanoma cells, read-out: GM3 C32 IC50
# [13] = Homo sapiens, C32, C32 cells, read-out: Viability, C32 IC50
Compound,pIC50 [5],"pIC50 [1, 10]","pIC50 [2, 11]","pIC50 [3, 12]","pIC50 [4, 13]",also measured
"COCCOc1ccc(-c2ccc(C(C)(C)NC(=O)OC3CCN4CCC3CC4)nc2)cc1 (single isomer, unassigned) [Example 349, 1-Azabicyclo[3.2.2]nonan-4-yl 2-(5-(4-(2-methoxyethoxy)phenyl)pyridin-2-yl)propan-2-ylcarbamate]",6.60,,,,,"pIC50 [1, 6]: 6.63; pIC50 [2, 7]: ≤ 5.00; pIC50 [3, 8]: 7.84; pIC50 [4, 9]: 6.00"
"CC1(NC(=O)N2CCN(c3cccc(-c4ccccc4)c3)CC2)CCN2CCC1CC2 (stereo not shown) [Example 16, 4-([1,1′-Biphenyl]-3-yl)-N-(4-methyl-1-azabicyclo[3.2.2]nonan-4-yl)piperazine-1-carboxamide]",7.31,6.74,5.17,7.91,6.00,
"O=C(NC1CN2CCC1CC2)N1CCN(c2ccccc2)CC1 (stereo not shown) [Example 7, 4-Phenyl-N-(quinuclidin-3-yl)piperazine-1-carboxamide]",4.91,< 5.00,≤ 5.00,5.15,≤ 5.00,
"COCCOc1cc(-c2ccc(F)cc2)nc(N2CCC(C(=O)NC3(C)CCN4CCC3CC4)CC2)n1 (stereo not shown) [Example 105, 1-(4-(4-Fluorophenyl)-6-(2-methoxyethoxy)pyrimidin-2-yl)-N-(4-methyl-1-azabicyclo[3.2.2]nonan-4-yl)piperidine-4-carboxamide]",7.98,6.57,5.44,8.70,6.00,
"CC1(NC(=O)C2CCN(c3cncc(-c4ccc(F)cc4)n3)CC2)CN2CCC1CC2 (stereo not shown) [Example 49, 1-(6-(4-Fluorophenyl)pyrazin-2-yl)-N-(3-methylquinuclidin-3-yl)piperidine-4-carboxamide]",8.39,6.84,5.09,9.09,6.00,
"CC1(NC(=O)C2CCN(c3ccc(-c4ccccc4)cc3)CC2)CCN2CCC1CC2 (stereo not shown) [Example 38, 1-([1,1′-Biphenyl]-4-yl)-N-(4-methyl-1-azabicyclo[3.2.2]nonan-4-yl)piperidine-4-carboxamide]",5.98,5.59,5.18,7.05,5.17,
"COCc1ccc(-c2ncnc(N3CCN(C(=O)NC4(C)CCN5CCC4CC5)CC3C(C)C)n2)cc1 (stereo not shown) [Example 151, 3-Isopropyl-4-(4-(4-(methoxymethyl)phenyl)-1,3,5-triazin-2-yl)-N-(4-methyl-1-azabicyclo[3.2.2]nonan-4-yl)piperazine-1-carboxamide]",6.49,5.74,5.01,7.02,6.00,
"COCc1ccc(-c2ccnc(N3CCC(F)(C(=O)NC4(C)CN5CCC4CC5)CC3)n2)cc1 (stereo not shown) [Example 80, 4-Fluoro-1-(4-(4-(methoxymethyl)phenyl)pyrimidin-2-yl)-N-(3-methylquinuclidin-3-yl)piperidine-4-carboxamide]",8.40,7.16,≤ 5.00,9.28,6.67,
"COCCOc1ccc(-c2ccc(C(C)(C)NC(=O)OC3CCN4CCC3CC4)nc2)cc1 (stereo not shown) [Example 347, 1-Azabicyclo[3.2.2]nonan-4-yl 2-(5-(4-(2-methoxyethoxy)phenyl)pyridin-2-yl)propan-2-ylcarbamate]",7.43,6.82,≤ 5.00,8.24,5.85,
"COCCCOc1ccc(-c2ccc(C3(NC(=O)OC4CCN5CCC4CC5)CC3)cc2)cc1 (stereo not shown) [Example 178, 1-Azabicyclo[3.2.2]nonan-4-yl (1-(4′-(3-methoxypropoxy)-[1,1′-biphenyl]-4-yl)cyclopropyl)carbamate]",8.45,7.17,≤ 5.00,8.58,5.15,
"O=C(NC1CCN2CCC1CC2)N1CCN(c2ccccc2)CC1 (stereo not shown) [Example 8, N-(1-Azabicyclo[3.2.2]nonan-4-yl)-4-phenylpiperazine-1-carboxamide]",5.48,,,,,"pIC50 [1, 6]: < 5.00; pIC50 ([2]; Mus musculus, B16 cells, concentration causing 50% cell death, values greater than 10 represent a lack of cell death, read-out: Viability, B16 IC50): ≤ 5.00; pIC50 [3, 8]: 6.29; pIC50 ([4]; Homo sapiens, C32 cells, read-out: Viability, C32 IC50): ≤ 5.00"
"CC(C)(NC(=O)NC1(C)CN2CCC1CC2)c1cccc(Oc2cccc(C(=O)N3CCOCC3)c2)c1 (stereo not shown) [Example 277, 1-(3-Methylquinuclidin-3-yl)-3-(2-(3-(3-(morpholine-4-carbonyl)phenoxy)phenyl)propan-2-yl)urea]",7.04,5.69,≤ 5.00,7.10,≤ 5.00,
"C[C@@H]1CN(C(=O)NC2(C)CCN3CCC2CC3)CCN1c1nccc(-c2ccccc2)n1 (single isomer, unassigned) [Example 137]",8.49,,,,,"pIC50 [1, 6]: 7.30; pIC50 [2, 7]: 5.24; pIC50 [3, 8]: 9.70; pIC50 [4, 9]: 6.00"
"COCc1ccc(-c2ccnc(N3CCC(C(=O)NC4(C)CCN5CCC4CC5)CC3)n2)cc1 (stereo not shown) [Example 70, 1-(4-(4-(Methoxymethyl)phenyl)pyrimidin-2-yl)-N-(4-methyl-1-azabicyclo[3.2.2]nonan-4-yl)piperidine-4-carboxamide]",8.40,7.81,6.00,10.04,6.00,
"CC1(NC(=O)C2CCN(c3cccc(-c4ncccn4)c3)CC2)CCN2CCC1CC2 (stereo not shown) [Example 39, N-(4-Methyl-1-azabicyclo[3.2.2]nonan-4-yl)-1-(3-(pyrimidin-2-yl)phenyl)piperidine-4-carboxamide]",5.74,5.14,≤ 5.00,6.90,5.50,
"COCCOc1ccc(-c2cccc(C(C)(C)NC(=O)OC3CN4CCC3CC4)c2)nc1 (stereo not shown) [Example 309, Quinuclidin-3-yl 2-(3-(5-(2-methoxyethoxy)pyridin-2-yl)phenyl)propan-2-ylcarbamate]",6.97,,,,,"pIC50 ([1]; Mus musculus, read-out: GM3 B16 IC50, B16 mouse melanoma cells): 6.73; pIC50 ([2]; Mus musculus, B16, read-out: Viability, B16 IC50): ≤ 5.00; pIC50 ([3]; Homo sapiens, read-out: GM3 C32 IC50, C32 human melanoma cells): 7.85; pIC50 ([4]; Homo sapiens, C32, read-out: Viability, C32 IC50, C32 cells): 5.50"
"CC(C)(NC(=O)OC1CCN2CCC1CC2)c1ccc(Oc2ccc(C(=O)N3CCCCC3)cc2)cc1 (stereo not shown) [Example 299, 1-Aza-bicyclo[3.2.2]nonan-4-yl 2-(4-(4-(piperidine-1-carbonyl)phenoxy)phenyl) propan-2-ylcarbamate]",7.81,6.72,≤ 5.00,8.44,6.00,
"CC1(NC(=O)C2CCN(c3ncc(F)c(-c4ccc(F)cc4)n3)CC2)CCN2CCC1CC2 (stereo not shown) [Example 55, 1-(5-Fluoro-4-(4-fluorophenyl)pyrimidin-2-yl)-N-(4-methyl-1-azabicyclo[3.2.2]nonan-4-yl)piperidine-4-carboxamide]",9.13,7.32,5.43,10.32,7.00,
"COCCCc1ccc(-c2ccc(C3(NC(=O)NC4(C)CN5CCC4CC5)CC3)cc2)cc1 (stereo not shown) [Example 214, 1-(1-(4′-(3-Methoxypropyl)-[1,1′-biphenyl]-4-yl)cyclopropyl)-3-(3-methylquinuclidin-3-yl)urea]",8.48,7.48,≤ 5.00,8.90,≤ 5.00,
"CNC(=O)c1ccc(Oc2ccc(C(C)(C)NC(=O)NC3(C)CN4CCC3CC4)cc2)cc1 (stereo not shown) [Example 293, N-Methyl-4-(4-(2-(3-(3-methylquinuclidin-3-yl)ureido)propan-2-yl)phenoxy)benzamide]",6.73,5.27,≤ 5.00,7.34,6.00,

# — US12060349B2, “Glucosylceramide synthase inhibitors” (Genzyme Corporation, priority 2012, dated 2024)
